Data set [1] in a line: TA4-1A in plasma, brain and tumor of HCT116 tumor-bearing mice. The following applies: for Share of the therapeutic agent in brain / Share of the therapeutic agent in plasma / Share of the therapeutic agent in tumor: mice, 12.5 mg/kg IV daily 14 days, wash-out, last dose day 19. Format: in vivo. The source says: In vivo experiment protocols were approved by the Animal Use and Care Committee. Female NCr nu/nu mice were purchased from Taconic Farms and group housed in a ventilated rack system on a 12/12 light cycle. All housing materials and water were autoclaved prior to use. The mice were fed ad libitum with gamma-irradiated laboratory chow and acidified water. Animals were handled under laminar-flow hoods. Animals were inoculated subcutaneously in the right flank with 5×10̂6 HCT116 cells. Tumors were monitored twice weekly and then daily as they approached the appropriate size for study. On Day 1 of the study, the animals were randomized into n=3 treatment groups with group average tumor sizes of 109 mm^3.
(§1) where w=width and 1=length in mm of the tumor. Tumor weight was estimated with the assumption that 1 mg is equivalent to 1 mm^3 of tumor volume. Mice were daily dosed with compound TA4-1A at 12.5 mg/kg (IV) during 14 days. A wash-out period ensued for four days with no dosing, and the last dose was administered after the wash-out period (day 19) at 12.5 mg/kg. At one, two and twenty-four hour time points plasma, brain and tumor samples were collected from terminal mice and frozen. It was determined that the tumor contained 35%, plasma contained 64% and brain contained 1% of the therapeutic agent after the one hour time point, and the tumor contained 74%, plasma contained 24% and brain contained 2% of the therapeutic agent after the two hour time point. At the 24 hour time point, tumor contained 17%, plasma contained 49% and brain contained 34% of the therapeutic agent. After an eight hour exposure to the agent in female and male rats, approximately 3-4% of the agent was available in the brain as compared to the amount in plasma. […] Examples of cell lines and particular brain cancers are described herein.

A short description of data set [2]: TA4-1A in brain compared to plasma in rats. Conditions: both sexes, rat, female and male rats, eight hour exposure, read-out: Agent available in the brain as compared to the amount in plasma. Format: in vivo. Here is the method: as §1

Structures are written as SMILES.

`CC(=O)N1CCN(c2nc3c(cc2F)c(=O)c(C(=O)NCCN2CCCC2)c2n(C)c4ccccc4n32)CC1` [TA4-1A]: in data set [1] (mice and rats, conclusion from brain levels), the Blood-brain barrier permeation result is listed as “can permeate the blood-brain barrier to some extent”. In data set [1] (24 hour), the “Share of the therapeutic agent in brain” value was determined as 34%, the “Share of the therapeutic agent in plasma” value was 49% and the “Share of the therapeutic agent in tumor” value is on record as 17%. In addition, in data set [1] (one hour), the “Share of the therapeutic agent in brain” value is 1%, the “Share of the therapeutic agent in plasma” value is given as 64% and the “Share of the therapeutic agent in tumor” value came out at 35%. Also, in data set [1] (two hour), the “Share of the therapeutic agent in brain” value stood at 2%, the “Share of the therapeutic agent in plasma” value is recorded as 24% and the “Share of the therapeutic agent in tumor” value was 74%. For the same molecule, in data set [2], the Kp at 8 h lay in the range of 0.03 to 0.04.

Source of the values: patent US20080318938A1, “METHODS FOR TREATING ABERRANT CELL PROLIFERATION DISORDERS” (priority 2007, published 2008).
